In patent US10406207B2, “Peptide conjugates of GLP-1 receptor agonists and gastrin and their use” (priority 2010, dated 2019):
Like-named read-outs stand apart in the source and are kept apart here. Numbered stars: 1 amine (or outer) side, 2 acyl side, 3 side chain; on linkers, the order of the positions; unused ones are H or OH. Square brackets hold non-standard residues; d marks the D form. Side chains are listed from the residue outwards. Peptide text beside a SMILES is read from it. * marks the point of attachment. γGlu = O=C(O)[C@H](CCC(=O)[*:2])N[*:1]; Palmitoyl = CCCCCCCCCCCCCCCC(=O)*; Orn = NCCC[C@H](N)C(=O)O; AEEA = NCCOCCOCC(=O)O

Columns and labels:
[1] = target: T1, human GLP-1 R (Homo sapiens, UniProt P43220); experiment: Human GLP-1 receptor efficacy assay (cAMP induction, FlashPlate); type: cell-based; conditions: read-out: hGLP-1 R EC50
T1 construct: expressed in transfected cells
T1 sequence (P43220 24-463): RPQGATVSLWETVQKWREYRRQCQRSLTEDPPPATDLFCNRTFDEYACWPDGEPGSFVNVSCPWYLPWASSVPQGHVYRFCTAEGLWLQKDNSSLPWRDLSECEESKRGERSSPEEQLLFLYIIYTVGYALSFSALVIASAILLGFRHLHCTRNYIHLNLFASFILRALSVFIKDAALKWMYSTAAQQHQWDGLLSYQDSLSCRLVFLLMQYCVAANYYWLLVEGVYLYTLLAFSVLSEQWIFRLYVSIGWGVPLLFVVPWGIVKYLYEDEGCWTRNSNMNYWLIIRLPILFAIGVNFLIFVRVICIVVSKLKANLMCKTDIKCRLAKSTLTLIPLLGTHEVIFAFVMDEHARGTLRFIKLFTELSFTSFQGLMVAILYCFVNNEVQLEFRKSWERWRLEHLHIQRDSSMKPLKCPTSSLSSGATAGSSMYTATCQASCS
Protocol: On the day of analysis, growth medium was removed and the cells were washed once with 200 μl Tyrode buffer [Tyrode's Salts (9.6 g/l), 10 mM HEPES, pH 7.4]. […] The reaction was stopped by addition of 25 μl 0.5 M HCl and incubated on ice for 60 min.

[2] = target: T2, human CCK-B R (Homo sapiens, UniProt P32239); experiment: Human CCK-B receptor efficacy assay (AlphaScreen SureFire p-ERK); type: cell-based; conditions: read-out: hCCK-B R EC50
T2 construct: expressed in transfected cells
T2 sequence (P32239 1-447): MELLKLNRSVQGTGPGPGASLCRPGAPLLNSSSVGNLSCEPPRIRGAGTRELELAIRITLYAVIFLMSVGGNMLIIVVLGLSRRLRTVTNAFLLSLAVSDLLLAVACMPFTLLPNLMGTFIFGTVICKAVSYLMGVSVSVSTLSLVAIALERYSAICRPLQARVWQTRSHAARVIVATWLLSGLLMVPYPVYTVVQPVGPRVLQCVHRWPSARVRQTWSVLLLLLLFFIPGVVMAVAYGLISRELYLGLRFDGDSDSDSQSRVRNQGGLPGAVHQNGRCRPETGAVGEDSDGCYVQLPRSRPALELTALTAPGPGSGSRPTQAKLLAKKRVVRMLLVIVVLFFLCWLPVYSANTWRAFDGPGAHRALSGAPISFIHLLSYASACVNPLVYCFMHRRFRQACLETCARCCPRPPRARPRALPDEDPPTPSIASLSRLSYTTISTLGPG
Protocol: CCK-B Receptor (CCK-B R) Efficacy Assay:
In vitro effects of peptide conjugates of the invention were estimated by measuring p-ERK (using the AlphaScreen™ SureFire p-ERK assay) in HEK293 cells stably expressing the human and mouse CCK-B R (high-affinity Gastrin receptor), respectively. The Gastrin receptor efficacy assays (AlphaScreen™ SureFire p-ERK assay) were performed as follows:
The CCK-B R expressing cells in question were seeded at 20,000 cells/well in 100 μl growth medium [DMEM, 10% FCS, Penicillin (100 IU/ml), Streptomycin (100 μg/ml)] in a 96-well plate coated with poly-D-lysine. The cells were incubated in an incubator (37° C., 5% 002) for two days.
The growth medium was changed to 80 μl of serum-free medium [DMEM, Penicillin (100 IU/ml), Streptomycin (100 μg/ml)] per well, and incubation of the cells was continued for 19 hours in the incubator (37° C., 5% CO2).
After 19 hours, 20 μl of serum-free medium containing one of 5 different concentrations of peptide conjugate was added (performed in triplicate for each concentration), and the cells were incubated for 5 min. at room temperature. • 2. The stimulation medium was discarded by quickly turning the plate upside down, and 60 μl 1× lysis buffer (from the SureFire assay kit) was added per well. • 3. The plate was shaken on a plate-shaker for 5 min and then placed on ice. • 4. SureFire P-ERK assay: 4 μl of each supernatant was transferred to a 384 well proxiplate (Perkin Elmer). • 5. 4 μl of each of the two control lysates (unstimulated and stimulated) were added to the proxiplate in duplicate. • 6. […] 7 μl of the latter reaction buffer+activation buffer+beads per well were added in the proxiplate, the mix being resuspended carefully before addition to the wells. • 7. The plate was incubated for 2 hours in a dark box in a 22° C. incubator. • 8. The plate was analyzed on an Envision™ light-emission plate reader (Perkin-Elmer) using the appropriate reading program (Perkin-Elmer).

| EC50 ([1]; Table 2) [nM] | EC50 ([2]; Table 2) [nM] | EC50 ([1]; Table 3) [nM] | EC50 ([2]; Table 3) [nM] | Structure (SMILES) |
| --- | --- | --- | --- | --- |
| 0.13 | 36 |  |  | CC[C@H](C)[C@H](NC(=O)[C@H](Cc1ccccc1)NC(=O)[C@H](CC(C)C)NC(=O)[C@H](CCCNC(=N)N)NC(=O)[C@@H](NC(=O)[C@H](C)NC(=O)[C@H](CCC(=O)O)NC(=O)[C@H](CCC(=O)O)NC(=O)[C@H](CCC(=O)O)NC(=O)[C@H](CC(C)C)NC(=O)[C@H](Cc1ccc(O)cc1)NC(=O)[C@H](CCCNC(=N)N)NC(=O)[C@H](CO)NC(=O)[C@H](CC(C)C)NC(=O)[C@H](CC(=O)O)NC(=O)[C@H](CO)NC(=O)[C@@H](NC(=O)[C@H](Cc1ccccc1)NC(=O)[C@@H](NC(=O)CNC(=O)[C@H](CCC(=O)O)NC(=O)CNC(=O)[C@@H](N)Cc1c[nH]cn1)[C@@H](C)O)[C@@H](C)O)C(C)C)C(=O)N[C@@H](CCCCN)C(=O)N[C@@H](Cc1ccccc1)C(=O)N[C@@H](CC(C)C)C(=O)N[C@@H](CCCNC(=N)N)C(=O)NCCOCCOCC(=O)N[C@@H](Cc1ccc(O)cc1)C(=O)NCC(=O)N[C@@H](Cc1c[nH]c2ccccc12)C(=O)N[C@@H](CC(C)C)C(=O)N[C@@H](CC(=O)O)C(=O)N[C@@H](Cc1ccccc1)C(N)=O [Compound 94, [Arg12,27,Leu14,Lys24,Phe25,Tyr13]Exendin-4(1-27)-Peg3-[Leu4]Gastrin6] (H-HGEGTFTSDLSRYLEEEAVRLFIKFLR[AEEA]YGWLDF-NH2) |
|  |  | 0.11 | 78 | CCCCCCCCCCCCCCCC(=O)N[C@@H](CCC(=O)NCCCC[C@H](NC(=O)CNC(=O)[C@H](CCCNC(=N)N)NC(=O)[C@@H](NC(=O)[C@H](CC(C)C)NC(=O)[C@H](Cc1c[nH]c2ccccc12)NC(=O)[C@H](C)NC(=O)[C@@H](NC(=O)[C@H](Cc1ccccc1)NC(=O)[C@H](CCC(=O)O)NC(=O)[C@H](CCCNC(=N)N)NC(=O)[C@H](C)NC(=O)[C@H](C)NC(=O)[C@H](CCC(N)=O)NC(=O)CNC(=O)[C@H](CCC(=O)O)NC(=O)[C@H](CC(C)C)NC(=O)[C@H](Cc1ccc(O)cc1)NC(=O)[C@H](CO)NC(=O)[C@H](CO)NC(=O)[C@@H](NC(=O)[C@H](CC(=O)O)NC(=O)[C@H](CO)NC(=O)[C@@H](NC(=O)[C@H](Cc1ccccc1)NC(=O)[C@@H](NC(=O)CNC(=O)[C@H](CCC(=O)O)NC(=O)[C@H](C)NC(=O)[C@@H](N)Cc1c[nH]cn1)[C@@H](C)O)[C@@H](C)O)C(C)C)[C@@H](C)CC)C(C)C)C(=O)NCC(=O)NCCOCCOCC(=O)NCCOCCOCC(=O)N[C@@H](Cc1ccc(O)cc1)C(=O)NCC(=O)N[C@@H](Cc1c[nH]c2ccccc12)C(=O)N[C@@H](CC(C)C)C(=O)N[C@@H](CC(=O)O)C(=O)N[C@@H](Cc1ccccc1)C(N)=O)C(=O)O [Compound 108, [Arg26,34,Lys(Hexadecanoyl-isoGlu)36]GLP-1(7-37)-Peg3-Peg3-[Leu4]Gastrin6] (H-HAEGTFTSDVSSYLEGQAAREFIAWLVRGK([γGlu-Palmitoyl])G[AEEA][AEEA]YGWLDF-NH2) |
| 0.046 | 12 |  |  | CC[C@H](C)[C@H](NC(=O)[C@H](Cc1ccccc1)NC(=O)[C@H](CC(C)C)NC(=O)[C@H](CCCNC(=N)N)NC(=O)[C@@H](NC(=O)[C@H](C)NC(=O)[C@H](CCC(=O)O)NC(=O)[C@H](CCC(=O)O)NC(=O)[C@H](CCC(=O)O)NC(=O)[C@H](CCSC)NC(=O)[C@H](Cc1ccc(O)cc1)NC(=O)[C@H](CCCCN)NC(=O)[C@H](CO)NC(=O)[C@H](CC(C)C)NC(=O)[C@H](CC(=O)O)NC(=O)[C@H](CO)NC(=O)[C@@H](NC(=O)[C@H](Cc1ccccc1)NC(=O)[C@@H](NC(=O)CNC(=O)[C@H](CCC(=O)O)NC(=O)CNC(=O)[C@@H](N)Cc1c[nH]cn1)[C@@H](C)O)[C@@H](C)O)C(C)C)C(=O)N[C@@H](CCC(=O)O)C(=O)N[C@@H](Cc1c[nH]c2ccccc12)C(=O)N[C@@H](CC(C)C)C(=O)N[C@@H](CCCCN)C(=O)N[C@@H](CC(N)=O)C(=O)NCCOCCOCC(=O)NCCOCCOCC(=O)N[C@@H](Cc1ccc(O)cc1)C(=O)NCC(=O)N[C@@H](Cc1c[nH]c2ccccc12)C(=O)N[C@@H](CC(C)C)C(=O)N[C@@H](CC(=O)O)C(=O)N[C@@H](Cc1ccccc1)C(N)=O [Compound 65, [Tyr13]Exendin-4(1-28)-Peg3-Peg3-[Leu4]Gastrin6] (H-HGEGTFTSDLSKYMEEEAVRLFIEWLKN[AEEA][AEEA]YGWLDF-NH2) |

The remaining lines, values behind:

| Structure (SMILES) | EC50 ([1]; Table 2) [nM] | EC50 ([2]; Table 2) [nM] | EC50 ([1]; Table 3) [nM] | EC50 ([2]; Table 3) [nM] |
| --- | --- | --- | --- | --- |
| CC[C@H](C)[C@H](NC(=O)[C@H](Cc1ccccc1)NC(=O)[C@H](CC(C)C)NC(=O)[C@H](CCCCN)NC(=O)[C@@H](NC(=O)[C@H](C)NC(=O)[C@H](CCC(=O)O)NC(=O)[C@H](CCC(=O)O)NC(=O)[C@H](CCC(=O)O)NC(=O)[C@H](CC(C)C)NC(=O)[C@H](Cc1ccc(O)cc1)NC(=O)[C@H](CCCNC(=N)N)NC(=O)[C@H](CO)NC(=O)[C@H](CC(C)C)NC(=O)[C@H](CC(=O)O)NC(=O)[C@H](CO)NC(=O)[C@@H](NC(=O)[C@H](Cc1ccccc1)NC(=O)[C@@H](NC(=O)CNC(=O)[C@H](CCC(=O)O)NC(=O)CNC(=O)[C@@H](N)Cc1c[nH]cn1)[C@@H](C)O)[C@@H](C)O)C(C)C)C(=O)N[C@@H](CCC(=O)O)C(=O)N[C@@H](Cc1ccccc1)C(=O)N[C@@H](CC(C)C)C(=O)N[C@@H](CCCNC(=N)N)C(=O)NCCOCCOCC(=O)N[C@@H](Cc1ccc(O)cc1)C(=O)NCC(=O)N[C@@H](Cc1c[nH]c2ccccc12)C(=O)N[C@@H](CC(C)C)C(=O)N[C@@H](CC(=O)O)C(=O)N[C@@H](Cc1ccccc1)C(N)=O [Compound 93, [Arg12,27,Leu14,Lys20,Phe25,Tyr13]Exendin-4(1-27)-Peg3-[Leu4]Gastrin6] (H-HGEGTFTSDLSRYLEEEAVKLFIEFLR[AEEA]YGWLDF-NH2) | 0.058 | 26 |  |  |
| CC[C@H](C)[C@H](NC(=O)[C@H](Cc1ccccc1)NC(=O)[C@H](CC(C)C)NC(=O)[C@H](CCCNC(=N)N)NC(=O)[C@@H](NC(=O)[C@H](C)NC(=O)[C@H](CCC(=O)O)NC(=O)[C@H](CCCCN)NC(=O)[C@H](CCC(=O)O)NC(=O)[C@H](CCSC)NC(=O)[C@H](CCC(N)=O)NC(=O)[C@H](CCCCN)NC(=O)[C@H](CO)NC(=O)[C@H](CC(C)C)NC(=O)[C@H](CC(=O)O)NC(=O)[C@H](CO)NC(=O)[C@@H](NC(=O)[C@H](Cc1ccccc1)NC(=O)[C@@H](NC(=O)CNC(=O)[C@H](CCC(=O)O)NC(=O)CNC(=O)[C@@H](N)Cc1c[nH]cn1)[C@@H](C)O)[C@@H](C)O)C(C)C)C(=O)N[C@@H](CCC(=O)O)C(=O)N[C@@H](Cc1c[nH]c2ccccc12)C(=O)N[C@@H](CC(C)C)C(=O)N[C@@H](CCCCN)C(=O)N[C@@H](CC(N)=O)C(=O)NCCOCCOCC(=O)NCCOCCOCC(=O)N[C@@H](Cc1ccc(O)cc1)C(=O)NCC(=O)N[C@@H](Cc1c[nH]c2ccccc12)C(=O)N[C@@H](CC(C)C)C(=O)N[C@@H](CC(=O)O)C(=O)N[C@@H](Cc1ccccc1)C(N)=O [Compound 81, [Lys16]Exendin-4(1-28)-Peg3-Peg3-[Leu4]Gastrin6] (H-HGEGTFTSDLSKQMEKEAVRLFIEWLKN[AEEA][AEEA]YGWLDF-NH2) | 0.032 | 15 |  |  |
| CC[C@H](C)[C@H](NC(=O)[C@H](Cc1ccccc1)NC(=O)[C@H](CC(C)C)NC(=O)[C@H](CCCNC(=N)N)NC(=O)[C@@H](NC(=O)[C@H](C)NC(=O)[C@H](CCC(=O)O)NC(=O)[C@H](CCC(=O)O)NC(=O)[C@H](CCC(=O)O)NC(=O)[C@H](CC(C)C)NC(=O)[C@H](Cc1ccc(O)cc1)NC(=O)[C@H](CCCCN)NC(=O)[C@H](CO)NC(=O)[C@H](CC(C)C)NC(=O)[C@H](CCC(=O)O)NC(=O)[C@H](CO)NC(=O)[C@@H](NC(=O)[C@H](Cc1ccccc1)NC(=O)[C@@H](NC(=O)CNC(=O)[C@H](CCC(=O)O)NC(=O)CNC(=O)[C@@H](N)Cc1c[nH]cn1)[C@@H](C)O)[C@@H](C)O)C(C)C)C(=O)N[C@@H](CCC(=O)O)C(=O)N[C@@H](Cc1ccccc1)C(=O)N[C@@H](CC(C)C)C(=O)N[C@@H](CCCCN)C(=O)NCCOCCOCC(=O)N[C@@H](CCCN)C(=O)N[C@@H](Cc1c[nH]c2ccccc12)C(=O)N[C@@H](CC(C)C)C(=O)N[C@@H](CC(=O)O)C(=O)N[C@@H](Cc1ccccc1)C(N)=O [Compound 99, [Glu9,Leu14,Phe25,Tyr13]Exendin-4(1-27)-Peg3-Orn-[Leu2]Gastrin4] (H-HGEGTFTSELSKYLEEEAVRLFIEFLK[AEEA][Orn]WLDF-NH2) | 0.041 | 51 |  |  |
| CC[C@H](C)[C@H](NC(=O)[C@H](Cc1ccccc1)NC(=O)[C@H](CC(C)C)NC(=O)[C@H](CCCNC(=N)N)NC(=O)[C@@H](NC(=O)[C@H](C)NC(=O)[C@H](CCC(=O)O)NC(=O)[C@H](CCC(=O)O)NC(=O)[C@H](CCC(=O)O)NC(=O)[C@H](CC(C)C)NC(=O)[C@H](Cc1ccc(O)cc1)NC(=O)[C@H](CCCCN)NC(=O)[C@H](CO)NC(=O)[C@H](CC(C)C)NC(=O)[C@H](CCC(=O)O)NC(=O)[C@H](CO)NC(=O)[C@@H](NC(=O)[C@H](Cc1ccccc1)NC(=O)[C@@H](NC(=O)CNC(=O)[C@H](CCC(=O)O)NC(=O)CNC(=O)[C@@H](N)Cc1c[nH]cn1)[C@@H](C)O)[C@@H](C)O)C(C)C)C(=O)N[C@@H](CCC(=O)O)C(=O)N[C@@H](Cc1ccccc1)C(=O)N[C@@H](CC(C)C)C(=O)N[C@@H](CCCCN)C(=O)N[C@@H](CCCN)C(=O)NCCOCCOCC(=O)N[C@@H](Cc1c[nH]c2ccccc12)C(=O)N[C@@H](CC(C)C)C(=O)N[C@@H](CC(=O)O)C(=O)N[C@@H](Cc1ccccc1)C(N)=O [Compound 98, [Glu9,Leu14,Phe25,Tyr13]Exendin-4(1-27)-Orn-Peg3-[Leu2]Gastrin4] (H-HGEGTFTSELSKYLEEEAVRLFIEFLK[Orn][AEEA]WLDF-NH2) | 0.046 | 10 |  |  |
